Reference: ChEMBL document CHEMBL1155519, “Discovery of N-phenyl-4-(thiazol-5-yl)pyrimidin-2-amine aurora kinase inhibitors” (J Med Chem, 2010)
pIC50, pKi: −log10 of the molar value. Calls of active or inactive are those of the source. The rule behind the calls is not given here.

What was measured:
SW-620 [1] = assay: Induction of apoptosis in human SW620 cells assessed as late apoptotic cells at 1 uM after 24 hrs by TUNEL assay; type: functional
[2] = Inhibition of PKA
HL-60 = assay: Cytotoxicity against human HL60 cells after 96 hrs by MTT assay; type: functional, cell-based; conditions: HL-60, 96 h
BXPC-3 = assay: Cytotoxicity against human BxPC3 cells after 96 hrs by MTT assay; type: functional, cell-based; conditions: BXPC-3, 96 h
[3] = Inhibition of Aurora kinase in human A549 cells assessed as concentration required for half-maximal inhibition of histone H3 serine-10 phosphorylation after 7 hrs immunofluorescence microscopy; type: cell-based; conditions: A549, 7 h
[4] = Inhibition of CK2
CYP1A2 = assay: In vitro elimination half life at 5 uM in presence of human recombinant CYP1A2; type: ADME; conditions: read-out: beta t1/2
HuP-T4 = assay: Cytotoxicity against human HUPT4 cells after 96 hrs by MTT assay; type: functional, cell-based; conditions: HuP-T4, 96 h
A2780 = assay: Cytotoxicity against human A2780 cells after 96 hrs by MTT assay; type: functional, cell-based; conditions: A2780, 96 h
SW-620 [5] = assay: Induction of apoptosis in human SW620 cells assessed as early apoptotic cells at 1 uM after 24 hrs by TUNEL assay; type: functional
NCI-H460 [6] = assay: Antitumor activity against human NCI-H460 cells xenografted in athymic mouse assessed as reduction in tumor volume at 100 mg/kg, po administered QD on day 1 after implantation for 5 days; type: functional, organism-based; design: dose 100 mg/kg
Mus musculus [7] = assay: Toxicity in athymic mouse xenografted with human NCI-H460 cells assessed as body weight loss at 75 mg/kg, po administered QD on day 1 after implantation for 5 days measured on day 13; type: organism-based; design: dose 75 mg/kg, route oral; conditions: in vivo, 120 h
[8] = Fraction unbound in rat plasma by equilibrium dialysis; type: ADME, cell-free
[9] = Antitumor activity against mouse P388D1 cells xenografted in BALB/c mouse assessed as increase in life span at 67 mg/kg, po administered BID on days 1-3 and 7-9 after tumor implantation relative to control
Cytochrome P450 3A = Cytochrome P450 3A (Homo sapiens, UniProt P08684+P20815+Q9HB55+P24462); assay: Inhibition of CYP3A in human hepatocyte at 5 uM; type: ADME, cell-based; conditions: hepatocytes
[10] = biological target: Cyclin-dependent kinase 7/ cyclin H (Homo sapiens, UniProt P50613); assay: Inhibition of CDK7/Cyclin H; type: protein-complex assay
[11] = Oral bioavailability in Wistar rat at 10 mg/kg after 24 hrs by LC/MS/MS analysis; type: ADME, organism-based; conditions: in vivo
Cytochrome P450 2D6 = Cytochrome P450 2D6 (Homo sapiens, UniProt P10635); assay: Inhibition of human recombinant CYP2D6 at 5 uM; type: ADME; conditions: recombinant enzyme
Mus musculus [12] = assay: Toxicity in athymic mouse xenografted with human NCI-H460 cells assessed as body weight loss at 100 mg/kg, po administered QD on day 1 after implantation for 5 days measured on day 13; type: organism-based; design: dose 100 mg/kg, route oral; conditions: in vivo, 120 h
SW-620 [13] = assay: Effect on mitotic index in human SW620 cells assessed as appearance of polyploid cells at 1 uM after 48 hrs by propidium iodide staining-based FACS analysis; type: functional, cell-based
[14] = Half life in rat liver microsomes by LC/MS/MS analysis; type: ADME, Microsome
[15] = biological target: Voltage-gated inwardly rectifying potassium channel KCNH2 (Homo sapiens, UniProt Q12809); assay: Inhibition of human ERG expressed in CHO cells up to 50 uM by patch-clamp electrophysiology; type: cell-based
NCI-H460 [16] = assay: Antitumor activity against human NCI-H460 cells xenografted in athymic mouse assessed as delay in tumor growth at 75 mg/kg, po administered QD on day 1 after implantation for 5 days; type: functional
HT-29 = assay: Cytotoxicity against human HT-29 cells after 96 hrs by MTT assay; type: functional, cell-based; conditions: HT-29, 96 h
Cytochrome P450 2C19 = Cytochrome P450 2C19 (Homo sapiens, UniProt P33261); assay: Inhibition of human recombinant CYP2C19 at 5 uM; type: ADME; conditions: recombinant enzyme
Cytochrome P450 1A = Cytochrome P450 1A (Homo sapiens, UniProt P04798+P05177); assay: Inhibition of CYP1A in human hepatocyte at 1 uM; type: ADME, cell-based; conditions: hepatocytes
SAOS-2 = assay: Cytotoxicity against human Saos2 cells after 96 hrs by MTT assay; type: functional, cell-based; conditions: SAOS-2, 96 h

Cytochrome P450 2D6, sequence (P10635 whole entry): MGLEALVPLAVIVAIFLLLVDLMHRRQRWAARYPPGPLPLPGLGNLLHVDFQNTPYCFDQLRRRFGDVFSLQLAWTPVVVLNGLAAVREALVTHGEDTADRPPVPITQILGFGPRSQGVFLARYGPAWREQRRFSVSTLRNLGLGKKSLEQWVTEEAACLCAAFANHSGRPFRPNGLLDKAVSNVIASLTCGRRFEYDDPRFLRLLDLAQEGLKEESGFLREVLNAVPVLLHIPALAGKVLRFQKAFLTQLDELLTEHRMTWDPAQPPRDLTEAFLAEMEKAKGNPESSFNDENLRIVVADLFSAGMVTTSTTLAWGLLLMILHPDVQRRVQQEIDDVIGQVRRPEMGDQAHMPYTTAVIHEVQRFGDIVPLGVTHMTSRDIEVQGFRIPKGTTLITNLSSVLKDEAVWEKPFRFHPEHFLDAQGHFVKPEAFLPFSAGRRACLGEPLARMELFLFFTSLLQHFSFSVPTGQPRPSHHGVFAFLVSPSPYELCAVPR
Cytochrome P450 2C19, sequence (P33261 whole entry): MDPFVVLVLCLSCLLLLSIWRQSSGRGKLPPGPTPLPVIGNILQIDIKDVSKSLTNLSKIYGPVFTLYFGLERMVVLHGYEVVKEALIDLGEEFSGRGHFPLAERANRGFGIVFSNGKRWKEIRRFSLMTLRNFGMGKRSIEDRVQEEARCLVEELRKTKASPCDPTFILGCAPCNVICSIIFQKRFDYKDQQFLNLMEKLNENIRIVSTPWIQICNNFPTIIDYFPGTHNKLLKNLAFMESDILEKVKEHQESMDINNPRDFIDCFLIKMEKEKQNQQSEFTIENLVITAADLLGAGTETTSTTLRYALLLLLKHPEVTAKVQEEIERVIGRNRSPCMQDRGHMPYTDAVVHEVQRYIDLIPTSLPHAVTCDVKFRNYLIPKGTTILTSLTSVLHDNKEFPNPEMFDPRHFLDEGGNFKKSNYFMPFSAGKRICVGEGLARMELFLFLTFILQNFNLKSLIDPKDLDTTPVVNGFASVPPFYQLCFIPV
Cyclin-dependent kinase 7/ cyclin H, sequence (P51946 whole entry): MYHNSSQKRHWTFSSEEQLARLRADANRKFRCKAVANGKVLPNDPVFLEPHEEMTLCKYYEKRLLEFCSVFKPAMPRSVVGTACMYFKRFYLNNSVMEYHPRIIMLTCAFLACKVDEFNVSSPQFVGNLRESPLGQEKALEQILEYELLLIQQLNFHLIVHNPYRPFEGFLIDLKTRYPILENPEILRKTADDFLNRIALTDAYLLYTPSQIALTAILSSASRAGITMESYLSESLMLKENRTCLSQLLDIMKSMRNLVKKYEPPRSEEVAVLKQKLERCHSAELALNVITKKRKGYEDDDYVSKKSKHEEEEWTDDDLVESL
Cyclin-dependent kinase 7/ cyclin H, sequence (P50613 whole entry): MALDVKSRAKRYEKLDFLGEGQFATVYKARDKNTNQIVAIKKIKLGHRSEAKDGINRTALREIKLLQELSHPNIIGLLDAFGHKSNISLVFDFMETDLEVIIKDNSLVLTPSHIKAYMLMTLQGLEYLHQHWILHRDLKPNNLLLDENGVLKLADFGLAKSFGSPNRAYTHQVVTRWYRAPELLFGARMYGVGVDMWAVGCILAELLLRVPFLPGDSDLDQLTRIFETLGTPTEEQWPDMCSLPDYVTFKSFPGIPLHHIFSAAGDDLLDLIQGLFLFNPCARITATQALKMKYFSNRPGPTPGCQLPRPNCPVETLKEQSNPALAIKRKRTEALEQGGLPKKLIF
Voltage-gated inwardly rectifying potassium channel KCNH2, sequence (Q12809 whole entry): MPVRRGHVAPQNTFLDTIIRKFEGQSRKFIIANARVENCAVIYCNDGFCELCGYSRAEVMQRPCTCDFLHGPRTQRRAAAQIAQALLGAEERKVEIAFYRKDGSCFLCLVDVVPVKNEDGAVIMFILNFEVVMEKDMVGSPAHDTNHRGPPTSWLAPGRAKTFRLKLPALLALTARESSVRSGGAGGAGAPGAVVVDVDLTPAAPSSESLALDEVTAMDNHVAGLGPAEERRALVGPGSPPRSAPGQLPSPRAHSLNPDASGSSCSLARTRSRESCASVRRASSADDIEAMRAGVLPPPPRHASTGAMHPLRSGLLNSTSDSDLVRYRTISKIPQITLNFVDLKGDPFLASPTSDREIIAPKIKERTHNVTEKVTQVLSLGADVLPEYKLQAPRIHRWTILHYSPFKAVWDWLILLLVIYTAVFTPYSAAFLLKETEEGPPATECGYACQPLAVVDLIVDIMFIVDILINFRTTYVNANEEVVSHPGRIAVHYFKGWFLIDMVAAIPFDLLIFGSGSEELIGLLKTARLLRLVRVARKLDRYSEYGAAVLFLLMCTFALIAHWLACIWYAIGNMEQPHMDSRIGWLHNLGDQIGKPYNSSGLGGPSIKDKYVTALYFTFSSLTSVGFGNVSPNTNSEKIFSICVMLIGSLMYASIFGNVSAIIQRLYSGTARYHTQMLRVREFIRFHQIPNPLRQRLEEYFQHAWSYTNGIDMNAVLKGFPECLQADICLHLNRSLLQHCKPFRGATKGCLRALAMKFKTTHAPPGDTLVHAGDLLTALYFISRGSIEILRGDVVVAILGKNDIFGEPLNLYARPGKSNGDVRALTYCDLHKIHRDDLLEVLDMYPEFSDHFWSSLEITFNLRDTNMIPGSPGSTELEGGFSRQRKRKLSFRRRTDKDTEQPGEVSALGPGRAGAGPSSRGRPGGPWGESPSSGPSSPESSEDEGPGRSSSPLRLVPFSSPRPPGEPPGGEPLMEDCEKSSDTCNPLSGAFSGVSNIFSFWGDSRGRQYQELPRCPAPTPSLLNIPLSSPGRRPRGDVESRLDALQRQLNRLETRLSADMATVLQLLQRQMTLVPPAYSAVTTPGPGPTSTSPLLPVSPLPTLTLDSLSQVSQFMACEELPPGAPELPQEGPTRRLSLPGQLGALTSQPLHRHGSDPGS

Cc1nc(N)sc1-c1ccnc(Nc2ccc(N3CCOCC3)cc2)n1 [CYC-116]
Activity (SW-620 [1]): 9.3% | pKi [2]: < 5.00 | pIC50 (HL-60): 6.43 | pIC50 (BXPC-3): 5.79 | pIC50 [3]: 6.32 | pKi [4]: < 5.00 | half-life at 5 µM (CYP1A2): 72 min | pIC50 (HuP-T4): 6.11 | pIC50 (A2780): 6.77 | Activity (SW-620 [5]): 91% | Activity (NCI-H460 [6]): Active | Activity (Mus musculus [7]): Non-toxic | fraction unbound [8]: 0.93 | Activity [9]: 183% | inhibition (INH) (Cytochrome P450 3A): Active | pKi [10]: < 5.00 | bioavailability [11]: 38% | inhibition (INH) (Cytochrome P450 2D6): Active | Activity (Mus musculus [12]): Non-toxic | Activity (SW-620 [13]): Active | half-life [14]: 32.8 min | inhibition (INH) [15]: Not Active | Activity (NCI-H460 [16]): 2.3 days | pIC50 (HT-29): 6.14 | inhibition (INH) (Cytochrome P450 2C19): Active | inhibition (INH) (Cytochrome P450 1A): Not Active | pIC50 (SAOS-2): 6.96
